Patent US5280014A, “Treatment of obesity and essential hypertension and related disorders” (Amylin Pharmaceuticals, Inc., priority 1991, dated 1994)

Legend:
[1] = test system: isolated soleus muscle from rats; assay: amylin antagonist assay: incorporation of radiolabelled glucose into glycogen in isolated soleus muscle; type: cell-based, rat
Protocol: Insulin was obtained as Humulin-R, 100 U/mL, recombinant human insulin (Eli Lilly, Indianapolis, Ind.). […] An antagonist assay was performed in vitro using the isolated soleus muscle from rats.
The right and left soleus muscles of 4-hour fasted rats were removed immediately after decapitation of the animals, divided in half and temporarily placed in physiological saline. Muscles were assigned to different treatment groups so that the 4 muscle pieces from each animal were evenly distributed among the 9 flasks representing the different assay conditions. […] Pharmacologically active agents were added to the 10mL of medium to result in the above stated concentrations and mixtures. […]
Dissolved glycogen was precipitated out by addition of 3 mL absolute ethanol and cooling to -20° C. overnight. […] The remaining glycogen was redissolved in water and scintillation fluid and counted for ^14 C.
From a knowledge of the specific activity of ^14 C-glucose in the 5.5 mM glucose of the incubation medium, and the total ^14 C counts remaining in the glycogen extracted from each muscle, it was possible to determine the net rate of glycogen synthesis over the final 60 minute incubation period. This was normalized per mass of muscle and expressed as μmoles of glucosyl units incorporated into glycogen per hour per gram of muscle. […]

[2] = test system: isolated adipocytes; conditions: Cooper et al. 1988; cited from earlier work
[3] = test system: isolated adipocytes; assay: formation of CO2 or triacylglycerol from glucose in isolated adipocytes; type: cell-based
[4] = test system: isolated incubated skeletal muscles of the rat; assay: effect of amylin on glucose uptake and glycogen synthesis in isolated incubated skeletal muscle; type: cell-based
[5] = test system: normal rats; assay: intravenous amylin bolus in normal rats (hyperglycemia, respiratory quotient); type: in vivo, rat
Excerpt: The hyperglycemia is partly accounted for by an increase in hepatic (endogenous) glucose output and partly by an increased impediment in peripheral glucose disposal.

[6] = test system: anaesthetised rats; assay: hyperinsulinemic euglycemic glucose clamp in rats infused with insulin and CGRP; conditions: for steady-state glucose infusion rate necessary to maintain euglycemia: FIG. 2A: insulin 1.8 mU/kg/min for 210 min, CGRP 0.02 ug/kg/min added from 80-150 min; for hepatic glucose output (HGO) / suppression of hepatic glucose output (HGO): FIG. 2B clamp, insulin alone or insulin in the presence of CGRP; for suppression of hepatic glucose output (HGO): from basal 11.2±0.7 mg/kg/min; for mean steady-state glucose infusion rate: FIG. 2B: CGRP 0.02 ug/kg/min plus insulin 1.8 mU/kg/min for 75 min, then insulin alone for 130 min; for mean steady-state plasma insulin level: insulin 1.8 mU/kg/min
Excerpt: In these experiments, the overall glucose disposal rate (GDR) equals the glucose rate plus hepatic glucose output (HGO).
In addition to stimulation of peripheral glucose disposal, another important in vivo glucoregulatory effect of insulin is to inhibit HGO.

[7] = test system: isolated adipocytes; assay: 2-deoxyglucose uptake in isolated adipocytes; type: cell-based
Protocol: (§1) In vitro studies in isolated adipocytes and cultured BC3H-1 myocytes were also conducted. […] Since 80-90% of in vivo insulin-stimulated glucose disposal represents skeletal muscle glucose uptake, an in vitro muscle cell system was also examined.

[8] = test system: BC3H-1 myocytes; assay: insulin-stimulated glucose uptake in cultured BC3H-1 myocytes; type: cell-based; conditions: 10^-8 M CGRP, all insulin concentrations, FIG. 4
Protocol: as §1

[9] = test system: spontaneously hypertensive (SHR) rats; conditions: continuous intravenous infusion of purified rat relaxin; single reported study; cited from earlier work
[10] = FIG. 2B protocol, last 20 min of each period

**Q.** Which results are given for amylin?
**A.** decrease of insulin-stimulated rate of glycogen synthesis ([1]; 20 nM amylin, 1000 μU/mL insulin): approximately 83%; effect on basal or insulin-stimulated incorporation of glucose into CO2 or triglyceride [2]: does not influence; effect on basal or insulin-stimulated rates of formation of CO2 or triacyglycerol [3]: no effect; reduction in the basal rate of glycogen synthesis ([4]; basal insulin concentration 1 uU/ml): 30%; response of amylin-treated muscles to insulin ([4]; insulin concentration giving half-maximal stimulation in non amylin-treated muscles): no response to insulin; insulin concentration needed to overcome the effect of amylin in muscle ([4]; supra-physiological level): 1000 uU/ml; persistence of hyperglycemia ([5]; 100 μg intravenous bolus): persists for several hours; time to hyperglycemia at diabetic levels ([5]; 100 μg intravenous bolus): 15 to 30 min; blood glucose level reached (hyperglycemia) ([5]; 100 μg intravenous bolus, eight normal rats): around 200 mg/dL; change in respiratory quotient (RQ) ([5]; during somatostatin infusion (no endogenous insulin release), fasted animal): no change in RQ; change in respiratory quotient (RQ) ([5]; somatostatin absent, insulin allowed to increase): increase in respiratory quotient

**Q.** For calcitonin gene-related peptide [CGRP], which “inhibition of insulin-stimulated GDR” value ([6]; CGRP infusion rate 0.005 ug/kg/min) is on record?
**A.** no inhibition

**Q.** What about the “inhibition of insulin-stimulated GDR” value ([6]; CGRP infusion rate 0.01 ug/kg/min) of the same substance?
**A.** intermediate effect

**Q.** And the “steady-state glucose infusion rate necessary to maintain euglycemia” value [6]?
**A.** 18.0 ± 0.1 mg/kg/min

**Q.** And the “hepatic glucose output (HGO)” value [6]?
**A.** 8.0 mg/kg/min

**Q.** And the “suppression of hepatic glucose output (HGO)” value [6]?
**A.** 29%

**Q.** What about the “rise of GDR above basal” value [6, 10] of the same substance?
**A.** 7.4 ± 1.6 mg/kg/min

**Q.** What about the “mean steady-state glucose infusion rate” value [6] of the same substance?
**A.** 9.9 ± 0.3 mg/kg/min

**Q.** And the “effect on basal or insulin-stimulated 2-deoxyglucose uptake” value [7]?
**A.** no effect

**Q.** What about the “effect on insulin-stimulated glucose uptake” value [8] of the same substance?
**A.** significantly inhibited

**Q.** Which results are given for insulin?
**A.** steady-state glucose infusion rate necessary to maintain euglycemia [6]: 26.7 ± 0.1 mg/kg/min; hepatic glucose output (HGO) [6]: 3.9 ± 2.7 mg/kg/min; suppression of hepatic glucose output (HGO) [6]: 69%; glucose disposal rate (GDR) ([6]; FIG. 2B protocol, 3H-glucose, last 20 min of each period, basal GDR 11.2±0.7): 35.6 ± 1.3 mg/kg/min; rise of GDR above basal [6, 10]: 24 ± 0.9 mg/kg/min; mean steady-state glucose infusion rate [6]: 32.3 ± 0.3 mg/kg/min; mean steady-state plasma insulin level ([6]; absence of the CGRP infusion): 695±105 uU/ml; mean steady-state plasma insulin level ([6]; presence of the CGRP infusion): 591±86 uU/ml; increase in rate of glycogen synthesis ([1]; 1000 μU/mL insulin added to media): 3.7 fold

**Q.** For relaxin, which “effect on systolic blood pressure” value [9] is on record?
**A.** highly effective in reducing systolic blood pressure
